Like-named read-outs stand apart in the source and are kept apart here.
Tests used:
[1] = tested on: stable HCV 1b RLuc replicon cells (dicistronic genotype 1b Con1 replicon); experiment: Renilla luciferase HCV replicon reporter assay, genotype 1b; type: cell-based; settings: Hepatitis C virus, 72 h, stable 1b Con1 RLuc replicon cells, 72 hours; read-out: 1b
How it was run: (§1)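 Antiviral EC50 was determined in HCV replicon cells (stable RLuc lines for 1a H77, 1b Con1, 2a JFH-1 with NS5A L31; J6 NS5A chimera with M31) treated 72 h with compound. Renilla luciferase was then quantified.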

[2] = tested on: stable HCV 1a RLuc replicon cells (dicistronic genotype 1a H77 replicon); experiment: Renilla luciferase HCV replicon reporter assay, genotype 1a; type: cell-based; settings: Hepatitis C virus, 72 h, stable 1a H77 RLuc replicon cells
How it was run: as §1

[3] = tested on: stable HCV 2a JFH-1 Rluc replicon cells (L31 present in NS5A); experiment: Renilla luciferase HCV replicon reporter assay, genotype 2a JFH-1; type: cell-based; settings: Hepatitis C virus
How it was run: as §1

[4] = tested on: NS5A chimeric genotype 2a JFH-1 replicon with genotype 2a J6 strain NS5A gene (M31 present); experiment: Replicon assay, genotype 2a J6 NS5A chimera; type: cell-based, HCV; settings: Hepatitis C virus
How it was run: as §1

[5] = tested on: NS5A chimeric genotype 2a JFH-1 replicon with genotype 2b MD2b-1 strain NS5A gene (M31 present); experiment: Replicon assay, genotype 2b NS5A chimera; type: cell-based, HCV; settings: Hepatitis C virus
How it was run: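 Cells carrying the stable or transiently transfected (Huh-Lunet) dicistronic RLuc replicons received 3-fold serial compound dilutions from 10 mM DMSO stocks. After 72 h, cells were lysed and Renilla luciferase read. DMSO served as the no-inhibition control and ITMN-191 above 100×EC50 as the positive control; EC50 by non-linear regression.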

[6] = tested on: NS5A chimeric genotype 1b Con1 replicon with genotype 3a S52 strain NS5A gene; experiment: Replicon assay, genotype 3a NS5A chimera; type: cell-based, HCV; settings: Hepatitis C virus
[7] = tested on: NS5A chimeric genotype 1b Con1 replicon with genotype 4a ED43 strain NS5A gene; experiment: Replicon assay, genotype 4a NS5A chimera; type: cell-based, HCV; settings: Hepatitis C virus
[8] = read-out: 2a JFH (nM), genotype 2a JFH-1 replicon (L31 in NS5A), stable cells
[9] = read-out: 2a JFH, stable 2a JFH-1 Rluc replicon cells, L31 in NS5A, activity range
[10] = read-out: 2a J6 (t) (nM), genotype 2a J6 NS5A chimeric replicon (M31), transiently transfected (t) into Huh-Lunet cells
[11] = read-out: 2a J6 (t), transiently transfected (t) into Huh-Lunet cells, activity range
[12] = 2BS, read-out: 2b (s), stably replicating replicon cells (s), activity range
[13] = read-out: 2b (s) (nM), genotype 2b MD2b-1 NS5A chimeric replicon (M31), stably replicating replicon cells (s)
[14] = read-out: 3a (s) (nM), genotype 3a NS5A chimeric replicon, stable replicon cells (s)
[15] = read-out: 3a (s), (s), activity range
[16] = read-out: 4a (s) (nM), genotype 4a NS5A chimeric replicon, stable replicon cells (s)
[17] = read-out: 4a (s), (s), activity range

Structure (SMILES)	EC50 [1]	EC50 [2]	EC50 ([2]; activity range)	EC50 [3, 8]	EC50 [3, 9]	EC50 [4, 10]	EC50 [4, 11]	EC50 [5, 12]	EC50 [5, 13]	EC50 [6, 14]	EC50 [6, 15]	EC50 [7, 16]	EC50 [7, 17]	EC50 ([5]; read-out: 2b (t) (nM), genotype 2b MD2b-1 NS5A chimeric replicon (M31), transiently transfected (t))	EC50 ([5]; read-out: 2b (t), transiently transfected (t) into Huh-Lunet cells, activity range)	EC50 ([6]; read-out: 3a (t) (nM), genotype 3a NS5A chimeric replicon, transiently transfected (t))	EC50 ([6]; read-out: 3a (t), transiently transfected (t) into Huh-Lunet cells, activity range)
COC(=O)N[C@H](C(=O)N1CCC[C@H]1c1ncc(-c2ccc3c(c2)COc2cc4c(ccc5nc([C@@H]6CCCN6C(=O)[C@@H](NC(=O)OC)[C@@H](C)OC)[nH]c54)cc2-3)[nH]1)[C@@H](C)OC [HG]	0.109 nM	0.06 nM	< 0.1 nM	0.021 nM	< 0.1 nM	0.185 nM	0.1 to 0.999 nM	0.1 to 0.999 nM	0.733 nM	0.129 nM	0.1 to 0.999 nM	0.033 nM	< 0.1 nM	–	–	–	–
COC(=O)N[C@@H](C)C(=O)N1[C@@H](C)CC[C@H]1c1nc2ccc3cc4c(cc3c2[nH]1)OCc1cc(-c2cnc([C@@H]3CC[C@H](C)N3C(=O)[C@@H](NC(=O)OC)C(C)C)[nH]2)ccc1-4 [HC]	0.016 nM	0.012 nM	< 0.1 nM	0.014 nM	< 0.1 nM	1.43 nM	1 to 44 nM	1 to 44 nM	1.82 nM	0.105 nM	0.1 to 0.999 nM	0.014 nM	< 0.1 nM	–	–	–	–
CC[C@H]1CC[C@@H](c2nc3ccc4cc5c(cc4c3[nH]2)OCc2cc(-c3cnc([C@@H]4CC[C@H](C)N4C(=O)[C@@H](NC(=O)OC)[C@@H](C)OC)[nH]3)ccc2-5)N1C(=O)[C@@H](NC(=O)OC)[C@@H](C)OC [EK, methyl[(2S,3R)-1-{(2S,5S)-2-[5-(2-{(2S,5S)-5-ethyl-1-[N-(methoxycarbonyl)-O-methyl-L-threonyl]pyrrolidin-2-yl}-1,11-dihydroisochromeno[4′,3′:6,7]naphtho[1,2-d]imidazol-9-yl)-1H-imidazol-2-yl]-5-methylpyrrolidin-1-yl}-3-methoxy-1-oxobutan-2-yl]carbamate]	0.05 nM	0.034 nM	< 0.1 nM	0.03 nM	< 0.1 nM	0.116 nM	0.1 to 0.999 nM	0.1 to 0.999 nM	0.238 nM	0.173 nM	0.1 to 0.999 nM	0.025 nM	< 0.1 nM	–	–	–	–
CC[C@H]1C[C@@H](c2nc3ccc4cc5c(cc4c3[nH]2)OCc2cc(-c3cnc([C@@H]4CC[C@H](C)N4C(=O)[C@@H](NC(=O)OC)C(C)C)[nH]3)ccc2-5)N(C(=O)[C@H](C)NC(=O)OC)C1 [HK]	0.026 nM	0.017 nM	< 0.1 nM	0.034 nM	< 0.1 nM	0.878 nM	0.1 to 0.999 nM	1 to 44 nM	11.5 nM	0.705 nM	0.1 to 0.999 nM	0.02 nM	< 0.1 nM	–	–	–	–
COC[C@H]1C[C@@H](c2ncc(-c3ccc4c(c3)COc3cc5c(ccc6nc([C@@H]7C[C@H](C)CN7C(=O)[C@@H](NC(=O)OC)[C@@H](C)OC)[nH]c65)cc3-4)[nH]2)N(C(=O)[C@@H](NC(=O)OC)[C@@H](C)OC)C1 [FW, Methyl {(2S,3R)-3-methoxy-1-[(2S,4S)-2-(9-{2-[(2S,4S)-1-[N-(methoxycarbonyl)-O-methyl-L-threonyl]-4-(methoxymethyl)pyrrolidin-2-yl]-1H-imidazol-5-yl}-1,11-dihydroisochromeno[4′,3′:6,7]naphtho[1,2-d]imidazol-2-yl)-4-methylpyrrolidin-1-yl]-1-oxobutan-2-yl}carbamate]	0.187 nM	0.121 nM	0.1 to 0.999 nM	0.054 nM	< 0.1 nM	0.104 nM	0.1 to 0.999 nM	0.1 to 0.999 nM	0.773 nM	1.17 nM	1 to 44 nM	0.08 nM	< 0.1 nM	0.399 nM	0.1 to 0.999 nM	–	–
CC[C@H]1C[C@@H](c2ncc(-c3ccc4c(c3)COc3cc5c(ccc6nc([C@@H]7CC[C@H](C)N7C(=O)[C@@H](NC(=O)OC)C(C)C)[nH]c65)cc3-4)[nH]2)N(C(=O)[C@@H](NC(=O)OC)[C@@H](C)OC)C1 [GX]	0.016 nM	0.016 nM	< 0.1 nM	0.013 nM	< 0.1 nM	0.135 nM	0.1 to 0.999 nM	1 to 44 nM	1.18 nM	0.106 nM	0.1 to 0.999 nM	0.01 nM	< 0.1 nM	–	–	–	–
COC(=O)NC(C(=O)N1[C@@H](C)CC[C@H]1c1nc2ccc3cc4c(cc3c2[nH]1)OCc1cc(-c2cnc([C@@H]3CC[C@H](C)N3C(=O)[C@@H](NC(=O)OC)[C@@H](C)OC)[nH]2)ccc1-4)C1CCOCC1 (stereo partly drawn) [EG, methyl{2-[(2S,5S)-2-(9-{2-[(2S,5S)-1-{(2S,3R)-3-methoxy-2-[(methoxycarbonyl)amino]butanoyl}-5-methylpyrrolidin-2-yl]-1H-imidazol-5-yl}-1,11-dihydroisochromeno[4′,3′:6,7]naphtho[1,2-d]imidazol-2-yl)-5-methylpyrrolidin-1-yl]-2-oxo-1-(tetrahydro-2H-pyran-4-yl)ethyl}carbamate]	0.045 nM	0.036 nM	< 0.1 nM	0.022 nM	< 0.1 nM	0.023 nM	< 0.1 nM	< 0.1 nM	0.072 nM	0.076 nM	< 0.1 nM	0.016 nM	< 0.1 nM	–	–	0.103 nM	0.1 to 0.999 nM
CC[C@H]1CC[C@@H](c2nc3ccc4cc5c(cc4c3[nH]2)OCc2cc(-c3cnc([C@@H]4C[C@H](C)CN4C(=O)[C@@H](NC(=O)OC)C(C)C)[nH]3)ccc2-5)N1C(=O)[C@@H](NC(=O)OC)C1CCOCC1 [IS]	0.021 nM	0.017 nM	< 0.1 nM	0.018 nM	< 0.1 nM	0.052 nM	< 0.1 nM	< 0.1 nM	0.083 nM	0.174 nM	0.1 to 0.999 nM	0.015 nM	< 0.1 nM	–	–	–	–
CC[C@H]1CC[C@@H](c2ncc(-c3ccc4c(c3)COc3cc5c(ccc6nc([C@@H]7C[C@@H]8CCC[C@@H]8N7C(=O)[C@@H](NC(=O)OC)C(C)C)[nH]c65)cc3-4)[nH]2)N1C(=O)[C@@H](NC(=O)OC)C1CCOCC1 [IN]	0.028 nM	0.021 nM	< 0.1 nM	0.03 nM	< 0.1 nM	0.044 nM	< 0.1 nM	0.1 to 0.999 nM	0.109 nM	0.212 nM	0.1 to 0.999 nM	0.023 nM	< 0.1 nM	–	–	–	–
